How the values were obtained:
rats = conditions: rat, in vivo
[1] = cited from earlier work

N=C1NC(O)C2C3OC4(O)OC(C(O)C2(N1)C4O)C3(O)CO (stereo not shown) [TTX, octahydro-12-(hydroxymethyl)-2-imino-5,9:7,10a-dimethano-10aH-(1,3)dioxocino(6,5-d)-pyrimidine-4,7,10,11, 12-pentol]
effective dosage (rats): 2.5 µg/mg | solubility in acidic aqueous solution [1]: soluble | solubility in organic solvents [1]: not soluble | solubility in water [1]: only slightly soluble
